Patent publication US10759783B2, “Biaryl inhibitors of Bruton'S tyrosine kinase” (BIOGEN MA INC., priority 2013, dated 2020)

target: T1, BTK enzyme (Homo sapiens, UniProt Q06187); experiment: In vitro BTK kinase assay: BTK-POLYGAT-LS assay; type: biochemical; settings: ATP 10 μM, read-out: IC50 (10uMATP)
T1 construct: purchased Upstate 14-552
Method: The purpose of the BTK in vitro assay is to determine compound potency against BTK through the measurement of IC50. […] For a typical assay, a 24 μL aliquot of a ATP/peptide master mix (final concentration; ATP 10 μM, polyGAT 100 nM) in kinase buffer (10 mM Tris-HCl pH 7.5, 10 mM MgCl2, 200 μM Na3PO4, 5 mM DTT, 0.01% Triton X-100, and 0.2 mg/ml casein) is added to each well. […] The assay is incubated for 30 minutes before being stopped with 28 μL of a 50 mM EDTA solution. […] The plate is covered and incubated for 45 minutes at room temperature.

T1 sequence (Q06187 whole entry): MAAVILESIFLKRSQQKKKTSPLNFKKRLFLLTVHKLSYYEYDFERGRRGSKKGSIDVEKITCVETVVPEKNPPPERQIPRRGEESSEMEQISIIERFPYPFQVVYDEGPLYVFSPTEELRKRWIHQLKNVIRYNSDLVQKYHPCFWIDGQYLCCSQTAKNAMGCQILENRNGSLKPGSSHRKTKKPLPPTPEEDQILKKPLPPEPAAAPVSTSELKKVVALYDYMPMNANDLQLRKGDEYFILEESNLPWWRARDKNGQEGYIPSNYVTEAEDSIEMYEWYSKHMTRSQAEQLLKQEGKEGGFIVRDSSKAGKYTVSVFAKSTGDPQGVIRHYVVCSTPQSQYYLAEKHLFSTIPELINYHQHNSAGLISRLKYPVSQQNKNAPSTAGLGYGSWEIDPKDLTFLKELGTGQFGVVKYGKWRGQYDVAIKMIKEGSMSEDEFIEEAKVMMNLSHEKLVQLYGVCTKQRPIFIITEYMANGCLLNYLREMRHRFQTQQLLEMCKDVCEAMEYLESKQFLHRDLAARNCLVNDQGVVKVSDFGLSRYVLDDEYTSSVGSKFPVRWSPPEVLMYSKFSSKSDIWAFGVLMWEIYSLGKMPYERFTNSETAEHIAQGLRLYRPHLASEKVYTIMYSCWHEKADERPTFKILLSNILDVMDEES

Row | IC50 | Compound
1 | 0.01 to 0.099 µM | Cc1cc(-c2cc(Nc3nnn(C)n3)ncn2)ccc1CNC(=O)c1cnc(C(C)(C)C)s1 [Example I-68, 2-(tert-butyl)-N-(2-methyl-4-(6-((2-methyl-2H-tetrazol-5-yl)amino)pyrimidin-4-yl)benzyl)thiazole-5-carboxamide]
2 | 0.01 to 0.099 µM | Cc1cc(-c2ccnc(NC(=O)C3CCN(C)CC3)c2)ccc1CNC(=O)c1cnc(C(C)(C)C)s1 [Example I-71, 2-(tert-butyl)-N-(2-methyl-4-(2-(1-methylpiperidine-4-carboxamido)pyridin-4-yl)benzyl)thiazole-5-carboxamide]
3 | 1 to 10 µM | Cc1cc(-c2ccnc(N)n2)ccc1CNC(=O)c1cc2n(n1)CCCNC2 [Example I-72, N-(4-(2-aminopyrimidin-4-yl)-2-methylbenzyl)-5,6,7,8-tetrahydro-4H-pyrazolo[1,5-a][1,4]diazepine-2-carboxamide]
4 | 1 to 10 µM | Cc1cc(-c2ccnc(N)n2)ccc1CNC(=O)c1nc2c(s1)CCNCC2 [Example I-73, N-(4-(2-aminopyrimidin-4-yl)-2-methylbenzyl)-5,6,7,8-tetrahydro-4H-thiazolo[4,5-d]azepine-2-carboxamide]
5 | 1 to 10 µM | Cc1cc(-c2ccnc(N)n2)ccc1CNC(=O)c1cn2c(n1)CNCC2 [Example I-74, N-(4-(2-aminopyrimidin-4-yl)-2-methylbenzyl)-5,6,7,8-tetrahydroimidazo[1,2-a]pyrazine-2-carboxamide]
6 | 1 to 10 µM | Cc1cc(-c2ccnc(N)n2)ccc1CNC(=O)c1nc2c(s1)CNCC2 [Example I-75, N-(4-(2-aminopyrimidin-4-yl)-2-methylbenzyl)-4,5,6,7-tetrahydrothiazolo[5,4-c]pyridine-2-carboxamide]
7 | > 10 µM | Cc1cc(-c2ccnc(N)n2)ccc1CNC(=O)c1cc2n(n1)CCNC2 [Example I-76, N-(4-(2-aminopyrimidin-4-yl)-2-methylbenzyl)-4,5,6,7-tetrahydro pyrazolo[1,5-a]pyrazine-2-carboxamide]
8 | 1 to 10 µM | Cc1cc(-c2ccnc(N)n2)ccc1CNC(=O)c1ccc2c(c1)CCNC2 [Example I-77, N-(4-(2-aminopyrimidin-4-yl)-2-methylbenzyl)-1,2,3,4-tetrahydroisoquinoline-6-carboxamide]
9 | > 10 µM | Cc1cc(-c2ccnc(N)n2)ccc1CNC(=O)c1ccc2c(n1)CCNC2 [Example I-78, N-(4-(2-aminopyrimidin-4-yl)-2-methylbenzyl)-5,6,7,8-tetrahydro-1,6-naphthyridine-2-carboxamide]
10 | 1 to 10 µM | Cc1cc(-c2ccnc(N)n2)ccc1CNC(=O)[C@@H]1CC[C@@H]2CNCCN2C1 [Example I-79, (7R,9aR)—N-(4-(2-aminopyrimidin-4-yl)-2-methylbenzyl)octahydro-1H-pyrido[1,2-a]pyrazine-7-carboxamide]
11 | 1 to 10 µM | Cc1cc(-c2ccnc(N)n2)ccc1CNC(=O)c1cnn(C)c1 [Example I-80, N-(4-(2-aminopyrimidin-4-yl)-2-methylbenzyl)-1-methyl-1H-pyrazole-4-carboxamide]
12 | 1 to 10 µM | Cc1cc(-c2ccnc(N)n2)ccc1CNC(=O)C1CC2CNCC2C1 (centres unmarked) [Example I-81, N-(4-(2-aminopyrimidin-4-yl)-2-methylbenzyl)octahydrocyclopenta[c]pyrrole-5-carboxamide]
13 | 0.1 to 0.999 µM | Cc1cc(-c2ccnc(N)n2)ccc1CNC(=O)c1cc2c(s1)CNCC2 [Example I-82, N-(4-(2-aminopyrimidin-4-yl)-2-methylbenzyl)-4,5,6,7-tetrahydrothieno[2,3-c]pyridine-2-carboxamide]
14 | 0.1 to 0.999 µM | Cc1cc(-c2ccnc(N)n2)ccc1CNC(=O)c1cnc(C(F)(F)F)s1 [Example I-83, N-(4-(2-aminopyrimidin-4-yl)-2-methylbenzyl)-2-(trifluoromethyl)thiazole-5-carboxamide]
15 | 1 to 10 µM | Cc1cc(-c2ccnc(N)n2)ccc1CNC(=O)c1cncs1 [Example I-84, N-(4-(2-aminopyrimidin-4-yl)-2-methylbenzyl)thiazole-5-carboxamide]
16 | 0.01 to 0.099 µM | Cc1cc(-c2ccnc(N)n2)ccc1CNC(=O)c1cnc(C2CC2)s1 [Example I-85, N-(4-(2-aminopyrimidin-4-yl)-2-methylbenzyl)-2-cyclopropylthiazole-5-carboxamide]
17 | 0.01 to 0.099 µM | Cc1cc(-c2ccnc(N)n2)ccc1CNC(=O)c1cnc(C(C)C)s1 [Example I-86, N-(4-(2-aminopyrimidin-4-yl)-2-methylbenzyl)-2-isopropylthiazole-5-carboxamide]
18 | 0.1 to 0.999 µM | COC(C)c1ncc(C(=O)NCc2ccc(-c3ccnc(N)n3)cc2C)s1 (centres unmarked) [Example I-87, N-(4-(2-aminopyrimidin-4-yl)-2-methylbenzyl)-2-(1-methoxyethyl)thiazole-5-carboxamide]
19 | 0.1 to 0.999 µM | Cc1cc(-c2ccnc(N)n2)ccc1CNC(=O)c1cnc(C2CCCO2)s1 (centres unmarked) [Example I-88, N-(4-(2-aminopyrimidin-4-yl)-2-methylbenzyl)-2-(tetrahydrofuran-2-yl)thiazole-5-carboxamide]
20 | 0.01 to 0.099 µM | Cn1cc(Nc2nccc(-c3ccc4c(c3)CCC4NC(=O)c3cnc(C(C)(C)C)s3)n2)cn1 (centres unmarked) [Example I-90, 2-(tert-butyl)-N-(5-(2-((1-methyl-1H-pyrazol-4-yl)amino)pyrimidin-4-yl)-2,3-dihydro-1H-inden-1-yl)thiazole-5-carboxamide]
21 | 0.01 to 0.099 µM | Cn1cc(Nc2cc(-c3ccc4c(c3)CCCC4NC(=O)c3cnc(C(C)(C)C)s3)ncn2)cn1 (centres unmarked) [Example I-92, 2-(tert-butyl)-N-(6-(6-((1-methyl-1H-pyrazol-4-yl)amino)pyrimidin-4-yl)-1,2,3,4-tetrahydronaphthalen-1-yl)thiazole-5-carboxamide]
22 | 0.01 to 0.099 µM | CC(C)(C)c1ncc(C(=O)NC2CCCc3cc(-c4cc(Nc5cn[nH]c5)ncn4)ccc32)s1 (centres unmarked) [Example I-93, N-(6-(6-((1H-pyrazol-4-yl)amino)pyrimidin-4-yl)-1,2,3,4-tetrahydronaphthalen-1-yl)-2-(tert-butyl)thiazole-5-carboxamide]
23 | 0.1 to 0.999 µM | Cn1cc(Nc2cc(-c3ccc4c(c3)CCCC4NC(=O)c3cc4c(s3)CCOC4)ncn2)cn1 (centres unmarked) [Example I-94, N-(6-(6-((1-methyl-1H-pyrazol-4-yl)amino)pyrimidin-4-yl)-1,2,3,4-tetrahydronaphthalen-1-yl)-6,7-dihydro-4H-thieno[3,2-c]pyran-2-carboxamide]
24 | 0.01 to 0.099 µM | CN1CCN(c2ccc(Nc3nccc(-c4ccc5c(c4)CCCC5NC(=O)c4cnc(C(C)(C)C)s4)n3)nc2)CC1 (centres unmarked) [Example I-96, 2-(tert-butyl)-N-(6-(2-((5-(4-methylpiperazin-1-yl)pyridin-2-yl)amino)pyrimidin-4-yl)-1,2,3,4-tetrahydronaphthalen-1-yl)thiazole-5-carboxamide]
25 | < 0.01 µM | Cn1cc(Nc2nccc(-c3ccc4c(c3)OCCC4NC(=O)c3cnc(C(C)(C)C)s3)n2)cn1 (centres unmarked) [Example I-97, 2-(tert-butyl)-N-(7-(2-((1-methyl-1H-pyrazol-4-yl)amino)pyrimidin-4-yl)chroman-4-yl)thiazole-5-carboxamide]
26 | 0.01 to 0.099 µM | Cn1cc(Nc2nccc(-c3ccc4c(c3)COCC4NC(=O)c3cnc(C(C)(C)C)s3)n2)cn1 (centres unmarked) [Example I-98, 2-(tert-butyl)-N-(7-(2-((1-methyl-1H-pyrazol-4-yl)amino)pyrimidin-4-yl)isochroman-4-yl)thiazole-5-carboxamide]
